# Test results published in the kinase profiling compilation of Christmann-Franck et al. (2016).
# What was measured:
# Experiment in all cases: radiometric filter-binding kinase assay, Kinase HotSpot
# Details in all cases: compound 0.5 µM; ATP 10 µM
# ACVR1 (human) = ACVR1 (human) (UniProt Q04771)
# ADRBK1 (human) = ADRBK1 (human) (UniProt P25098)
# ADRBK2 (human) = ADRBK2 (human) (UniProt P35626)
# CAMK2G (human) = CAMK2G (human) (UniProt Q13555)
# CDK2 CCNE1 (human) = CDK2 CCNE1 (human) (UniProt P24941+P24864)
# CDK3 CCNE1 (human) = CDK3 CCNE1 (human) (UniProt Q00526+P24864)
# CDK6 CCND1 (human) = CDK6 CCND1 (human) (UniProt Q00534+P24385)
# CDK9 CCNK (human) = CDK9 CCNK (human) (UniProt O75909+P50750)
# CHEK2 (human) = CHEK2 (human) (UniProt O96017)
# CSF1R (human) = CSF1R (human) (UniProt P07333)
# DYRK1B (human) = DYRK1B (human) (UniProt Q9Y463)
# DYRK4 (human) = DYRK4 (human) (UniProt Q9NR20)
# EPHA8 (human) = EPHA8 (human) (UniProt P29322)
# ERBB4 (human) = ERBB4 (human) (UniProt Q15303)
# FGFR4 (human) = FGFR4 (human) (UniProt P22455)
# GRK7 (human) = GRK7 (human) (UniProt Q8WTQ7)
# GSK3B (human) = GSK3B (human) (UniProt P49841)
# LRRK2 (human) = LRRK2 (human) (UniProt Q5S007)
# MAP3K5 (human) = MAP3K5 (human) (UniProt Q99683)
# MAP3K9 (human) = MAP3K9 (human) (UniProt P80192)
# MAP4K2 (human) = MAP4K2 (human) (UniProt Q12851)
# MAPK10 (human) = MAPK10 (human) (UniProt P53779)
# MAPKAPK3 (human) = MAPKAPK3 (human) (UniProt Q16644)
# NEK3 (human) = NEK3 (human) (UniProt P51956)
# NEK4 (human) = NEK4 (human) (UniProt P51957)
# NEK6 (human) = NEK6 (human) (UniProt Q9HC98)
# NEK7 (human) = NEK7 (human) (UniProt Q8TDX7)
# NUAK1 (human) = NUAK1 (human) (UniProt O60285)
# PDGFRA (human) = PDGFRA (human) (UniProt P16234)
# PHKG2 (human) = PHKG2 (human) (UniProt P15735)
# PLK1 (human) = PLK1 (human) (UniProt P53350)
# PRKCA (human) = PRKCA (human) (UniProt P17252)
# PRKCB1 (human) = PRKCB1 (human) (UniProt P05771)
# [1] = test system: PRKCQ (human), Q04759 [P330L]
# PRKCZ (human) = PRKCZ (human) (UniProt Q05513)
# PRKG2 (human) = PRKG2 (human) (UniProt Q13237)
# PTK6 (human) = PTK6 (human) (UniProt Q13882)
# SRMS (human) = SRMS (human) (UniProt Q9H3Y6)
# TBK1 (human) = TBK1 (human) (UniProt Q9UHD2)
# TGFBR1 (human) = TGFBR1 (human) (UniProt P36897)
# TTK (human) = TTK (human) (UniProt P33981)
# WNK3 (human) = WNK3 (human) (UniProt Q9BYP7)
# Sequence of NEK7 (human) (Q8TDX7 whole entry, looked up): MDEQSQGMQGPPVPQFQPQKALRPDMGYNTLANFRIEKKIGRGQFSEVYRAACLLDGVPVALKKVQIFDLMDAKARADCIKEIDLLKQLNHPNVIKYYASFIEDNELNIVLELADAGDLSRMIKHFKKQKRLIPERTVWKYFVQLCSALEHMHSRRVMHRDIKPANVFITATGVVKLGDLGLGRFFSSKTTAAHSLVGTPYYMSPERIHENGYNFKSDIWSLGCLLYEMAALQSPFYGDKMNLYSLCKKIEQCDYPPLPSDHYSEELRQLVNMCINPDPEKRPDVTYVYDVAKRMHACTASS
# Sequence of TTK (human) (P33981 whole entry, looked up): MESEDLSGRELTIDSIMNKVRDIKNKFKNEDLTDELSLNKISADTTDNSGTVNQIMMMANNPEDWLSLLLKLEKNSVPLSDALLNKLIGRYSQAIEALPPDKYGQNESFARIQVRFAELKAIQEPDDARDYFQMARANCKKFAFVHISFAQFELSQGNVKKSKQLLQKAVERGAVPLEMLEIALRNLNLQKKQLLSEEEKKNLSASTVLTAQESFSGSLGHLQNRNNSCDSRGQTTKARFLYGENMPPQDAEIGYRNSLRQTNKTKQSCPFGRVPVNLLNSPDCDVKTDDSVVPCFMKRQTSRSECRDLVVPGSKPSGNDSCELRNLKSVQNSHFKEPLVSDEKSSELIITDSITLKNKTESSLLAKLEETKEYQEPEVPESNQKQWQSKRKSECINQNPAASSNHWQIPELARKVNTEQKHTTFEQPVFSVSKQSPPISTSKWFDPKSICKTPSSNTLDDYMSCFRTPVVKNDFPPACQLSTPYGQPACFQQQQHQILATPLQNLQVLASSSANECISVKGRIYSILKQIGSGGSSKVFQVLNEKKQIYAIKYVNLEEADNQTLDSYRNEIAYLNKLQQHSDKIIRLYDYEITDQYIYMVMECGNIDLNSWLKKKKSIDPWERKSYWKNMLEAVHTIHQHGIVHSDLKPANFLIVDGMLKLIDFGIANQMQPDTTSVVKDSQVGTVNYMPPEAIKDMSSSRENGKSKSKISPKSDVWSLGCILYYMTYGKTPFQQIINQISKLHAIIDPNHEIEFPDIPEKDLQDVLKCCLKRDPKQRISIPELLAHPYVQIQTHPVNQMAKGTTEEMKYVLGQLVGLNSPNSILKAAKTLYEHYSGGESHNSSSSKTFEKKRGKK
# Sequence of NEK6 (human) (Q9HC98 whole entry, looked up): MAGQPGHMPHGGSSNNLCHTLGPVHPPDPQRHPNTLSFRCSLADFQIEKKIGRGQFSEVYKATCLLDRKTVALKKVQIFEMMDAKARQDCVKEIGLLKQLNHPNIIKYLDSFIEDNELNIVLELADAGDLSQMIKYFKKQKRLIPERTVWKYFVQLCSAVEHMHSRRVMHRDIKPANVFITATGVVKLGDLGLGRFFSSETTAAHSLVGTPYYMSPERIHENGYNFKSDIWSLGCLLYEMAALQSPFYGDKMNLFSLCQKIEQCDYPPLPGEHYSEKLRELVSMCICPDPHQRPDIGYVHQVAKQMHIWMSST
# Sequence of NEK4 (human) (P51957 whole entry, looked up): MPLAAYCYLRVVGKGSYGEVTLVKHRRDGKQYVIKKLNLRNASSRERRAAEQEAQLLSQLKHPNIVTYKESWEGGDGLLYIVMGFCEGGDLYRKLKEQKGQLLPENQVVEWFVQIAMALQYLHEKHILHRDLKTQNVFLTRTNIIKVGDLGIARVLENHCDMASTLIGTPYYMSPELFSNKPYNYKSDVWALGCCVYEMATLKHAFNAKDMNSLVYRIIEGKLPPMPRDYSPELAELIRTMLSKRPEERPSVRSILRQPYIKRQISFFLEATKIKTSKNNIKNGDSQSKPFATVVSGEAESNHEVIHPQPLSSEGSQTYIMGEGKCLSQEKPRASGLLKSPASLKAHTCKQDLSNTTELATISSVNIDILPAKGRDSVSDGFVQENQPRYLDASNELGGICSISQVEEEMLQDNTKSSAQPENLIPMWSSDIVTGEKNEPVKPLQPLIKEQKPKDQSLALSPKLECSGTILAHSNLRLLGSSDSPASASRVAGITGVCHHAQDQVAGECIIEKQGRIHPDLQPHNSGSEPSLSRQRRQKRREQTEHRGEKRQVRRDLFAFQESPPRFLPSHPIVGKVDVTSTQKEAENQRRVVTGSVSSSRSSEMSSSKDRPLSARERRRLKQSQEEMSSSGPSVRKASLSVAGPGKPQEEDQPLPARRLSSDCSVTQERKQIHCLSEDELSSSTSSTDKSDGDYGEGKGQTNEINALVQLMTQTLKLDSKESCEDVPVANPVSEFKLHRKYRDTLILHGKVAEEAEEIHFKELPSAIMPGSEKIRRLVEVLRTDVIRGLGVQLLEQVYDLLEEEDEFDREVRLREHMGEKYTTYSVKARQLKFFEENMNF
# Sequence of PRKG2 (human) (Q13237 whole entry, looked up): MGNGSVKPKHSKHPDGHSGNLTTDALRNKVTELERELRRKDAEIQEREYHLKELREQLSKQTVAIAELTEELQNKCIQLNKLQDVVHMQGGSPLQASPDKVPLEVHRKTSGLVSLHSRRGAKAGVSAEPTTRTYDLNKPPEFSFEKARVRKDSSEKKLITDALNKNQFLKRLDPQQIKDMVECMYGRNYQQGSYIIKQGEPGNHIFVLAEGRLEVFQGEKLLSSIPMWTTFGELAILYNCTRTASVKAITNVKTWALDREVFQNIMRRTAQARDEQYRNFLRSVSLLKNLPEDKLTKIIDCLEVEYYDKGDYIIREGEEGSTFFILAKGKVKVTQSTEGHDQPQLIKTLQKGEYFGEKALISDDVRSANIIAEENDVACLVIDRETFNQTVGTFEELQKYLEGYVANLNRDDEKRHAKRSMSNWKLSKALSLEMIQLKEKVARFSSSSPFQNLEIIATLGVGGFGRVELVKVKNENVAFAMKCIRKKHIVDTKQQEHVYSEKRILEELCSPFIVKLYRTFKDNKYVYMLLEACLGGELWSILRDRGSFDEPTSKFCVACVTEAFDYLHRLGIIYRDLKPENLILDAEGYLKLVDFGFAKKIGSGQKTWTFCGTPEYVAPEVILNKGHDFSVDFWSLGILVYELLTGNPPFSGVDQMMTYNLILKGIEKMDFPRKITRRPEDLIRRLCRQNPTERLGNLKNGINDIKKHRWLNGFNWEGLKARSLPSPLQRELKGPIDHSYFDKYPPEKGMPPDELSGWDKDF
# Sequence of CHEK2 (human) (O96017 whole entry, looked up): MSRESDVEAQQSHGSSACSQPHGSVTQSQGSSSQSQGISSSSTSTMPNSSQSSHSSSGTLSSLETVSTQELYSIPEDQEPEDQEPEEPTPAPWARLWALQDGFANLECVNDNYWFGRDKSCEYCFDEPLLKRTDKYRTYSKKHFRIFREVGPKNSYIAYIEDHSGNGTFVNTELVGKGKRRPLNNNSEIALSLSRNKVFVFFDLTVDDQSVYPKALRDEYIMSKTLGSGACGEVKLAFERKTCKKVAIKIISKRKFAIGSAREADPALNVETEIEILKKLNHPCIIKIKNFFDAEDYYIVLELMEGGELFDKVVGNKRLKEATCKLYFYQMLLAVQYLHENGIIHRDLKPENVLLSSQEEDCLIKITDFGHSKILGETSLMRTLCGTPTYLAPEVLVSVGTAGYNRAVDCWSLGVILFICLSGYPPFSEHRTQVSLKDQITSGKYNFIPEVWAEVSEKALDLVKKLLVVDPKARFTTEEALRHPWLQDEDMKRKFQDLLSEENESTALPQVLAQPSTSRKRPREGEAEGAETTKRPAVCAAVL
# Sequence of NUAK1 (human) (O60285 whole entry, looked up): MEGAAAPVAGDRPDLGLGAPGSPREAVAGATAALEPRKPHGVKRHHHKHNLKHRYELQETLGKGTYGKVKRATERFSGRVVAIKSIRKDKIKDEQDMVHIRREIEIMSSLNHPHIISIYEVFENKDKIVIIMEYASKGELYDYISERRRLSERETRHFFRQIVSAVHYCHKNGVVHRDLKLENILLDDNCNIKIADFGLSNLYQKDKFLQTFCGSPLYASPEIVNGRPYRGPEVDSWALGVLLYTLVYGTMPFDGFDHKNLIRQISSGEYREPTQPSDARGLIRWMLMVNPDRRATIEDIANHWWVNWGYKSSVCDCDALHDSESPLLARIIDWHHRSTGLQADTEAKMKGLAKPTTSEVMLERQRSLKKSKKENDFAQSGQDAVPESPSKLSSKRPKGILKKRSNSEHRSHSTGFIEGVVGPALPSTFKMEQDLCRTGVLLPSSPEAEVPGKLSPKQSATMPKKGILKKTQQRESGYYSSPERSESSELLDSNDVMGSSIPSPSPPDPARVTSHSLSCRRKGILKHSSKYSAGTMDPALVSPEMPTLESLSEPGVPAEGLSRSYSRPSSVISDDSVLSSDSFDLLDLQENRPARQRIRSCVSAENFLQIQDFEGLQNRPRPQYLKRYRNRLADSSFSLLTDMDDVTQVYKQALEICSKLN
# Sequence of TGFBR1 (human) (P36897 whole entry, looked up): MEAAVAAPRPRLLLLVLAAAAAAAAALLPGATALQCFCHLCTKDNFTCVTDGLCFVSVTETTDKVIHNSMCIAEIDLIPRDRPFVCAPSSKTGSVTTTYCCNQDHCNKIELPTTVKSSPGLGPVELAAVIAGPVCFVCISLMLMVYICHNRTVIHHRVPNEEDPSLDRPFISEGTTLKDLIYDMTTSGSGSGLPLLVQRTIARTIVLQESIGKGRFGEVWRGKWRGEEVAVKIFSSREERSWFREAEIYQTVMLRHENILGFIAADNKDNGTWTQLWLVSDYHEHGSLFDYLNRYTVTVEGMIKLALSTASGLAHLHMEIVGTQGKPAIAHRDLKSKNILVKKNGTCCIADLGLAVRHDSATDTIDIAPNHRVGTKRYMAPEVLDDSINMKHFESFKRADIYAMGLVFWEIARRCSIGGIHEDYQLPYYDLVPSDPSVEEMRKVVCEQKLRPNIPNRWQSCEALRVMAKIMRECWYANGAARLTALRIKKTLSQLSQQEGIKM
structure (smiles),measurement,setting,value
O=C1NC(=O)c2c1c1c3ccccc3[nH]c1n1cncc21,residual activity,ACVR1 (human),103%
same,residual activity,ADRBK1 (human),107%
same,residual activity,ADRBK2 (human),109%
same,residual activity,CAMK2G (human),52.3%
same,residual activity,CDK2 CCNE1 (human),66.5%
same,residual activity,CDK3 CCNE1 (human),76.7%
same,residual activity,CDK6 CCND1 (human),65.7%
same,residual activity,CDK9 CCNK (human),83.8%
same,residual activity,CHEK2 (human),21.2%
same,residual activity,CSF1R (human),64.9%
same,residual activity,DYRK1B (human),65.9%
same,residual activity,DYRK4 (human),107%
same,residual activity,EPHA8 (human),97.5%
same,residual activity,ERBB4 (human),102%
same,residual activity,FGFR4 (human),78.6%
same,residual activity,GRK7 (human),96.2%
same,residual activity,GSK3B (human),30.8%
same,residual activity,LRRK2 (human),61.3%
same,residual activity,MAP3K5 (human),97.8%
same,residual activity,MAP3K9 (human),72.5%
same,residual activity,MAP4K2 (human),51.8%
same,residual activity,MAPK10 (human),96%
same,residual activity,MAPKAPK3 (human),88.7%
same,residual activity,NEK3 (human),89.3%
same,residual activity,NEK4 (human),88.4%
same,residual activity,NEK6 (human),88.7%
same,residual activity,NEK7 (human),80.3%
same,residual activity,NUAK1 (human),12.1%
same,residual activity,PDGFRA (human),84.4%
same,residual activity,PHKG2 (human),108%
same,residual activity,PLK1 (human),50.8%
same,residual activity,PRKCA (human),66.5%
same,residual activity,PRKCB1 (human),95%
same,residual activity,[1],88.9%
same,residual activity,PRKCZ (human),84.8%
same,residual activity,PRKG2 (human),64.1%
same,residual activity,PTK6 (human),89%
same,residual activity,SRMS (human),100%
same,residual activity,TBK1 (human),81.9%
same,residual activity,TGFBR1 (human),96.3%
same,residual activity,TTK (human),79%
same,residual activity,WNK3 (human),79.1%
COc1cc2ncnc(Nc3ccc(Oc4ccccc4)cc3)c2cc1OC,residual activity,ACVR1 (human),93.7%
same,residual activity,ADRBK1 (human),101%
same,residual activity,ADRBK2 (human),91.8%
same,residual activity,CAMK2G (human),94%
same,residual activity,CDK2 CCNE1 (human),87.8%
same,residual activity,CDK3 CCNE1 (human),98.5%
same,residual activity,CDK6 CCND1 (human),95.1%
same,residual activity,CDK9 CCNK (human),96.7%
same,residual activity,CHEK2 (human),29.6%
same,residual activity,CSF1R (human),100%
same,residual activity,DYRK1B (human),97%
same,residual activity,DYRK4 (human),97.3%
same,residual activity,EPHA8 (human),97.4%
same,residual activity,ERBB4 (human),8.79%
same,residual activity,FGFR4 (human),77.8%
same,residual activity,GRK7 (human),103%
same,residual activity,GSK3B (human),109%
same,residual activity,LRRK2 (human),65.3%
same,residual activity,MAP3K5 (human),107%
same,residual activity,MAP3K9 (human),57.7%
same,residual activity,MAP4K2 (human),104%
same,residual activity,MAPK10 (human),103%
same,residual activity,MAPKAPK3 (human),98.9%
same,residual activity,NEK3 (human),98.4%
same,residual activity,NEK4 (human),96.8%
same,residual activity,NEK6 (human),93%
same,residual activity,NEK7 (human),103%
same,residual activity,NUAK1 (human),105%
same,residual activity,PDGFRA (human),88.8%
same,residual activity,PHKG2 (human),100%
same,residual activity,PLK1 (human),96.4%
same,residual activity,PRKCA (human),101%
same,residual activity,PRKCB1 (human),109%
same,residual activity,[1],124%
same,residual activity,PRKCZ (human),100%
same,residual activity,PRKG2 (human),98.3%
same,residual activity,PTK6 (human),-0.0383%
same,residual activity,SRMS (human),31.6%
same,residual activity,TBK1 (human),93.7%
same,residual activity,TGFBR1 (human),97.1%
same,residual activity,TTK (human),90%
same,residual activity,WNK3 (human),87.8%
O=C1c2ccccc2-c2nc3nnnn3nc21,residual activity,ACVR1 (human),93.1%
same,residual activity,ADRBK1 (human),106%
same,residual activity,ADRBK2 (human),106%
same,residual activity,CAMK2G (human),91.1%
same,residual activity,CDK2 CCNE1 (human),80.6%
same,residual activity,CDK3 CCNE1 (human),73.4%
same,residual activity,CDK6 CCND1 (human),59.6%
same,residual activity,CDK9 CCNK (human),74.4%
same,residual activity,CHEK2 (human),54.7%
same,residual activity,CSF1R (human),11.6%
same,residual activity,DYRK1B (human),81%
same,residual activity,DYRK4 (human),88.5%
same,residual activity,EPHA8 (human),92.6%
same,residual activity,ERBB4 (human),50.2%
same,residual activity,FGFR4 (human),58%
same,residual activity,GRK7 (human),78.1%
same,residual activity,GSK3B (human),83.5%
same,residual activity,LRRK2 (human),85.6%
same,residual activity,MAP3K5 (human),106%
same,residual activity,MAP3K9 (human),63.3%
same,residual activity,MAP4K2 (human),79.4%
same,residual activity,MAPK10 (human),55%
same,residual activity,MAPKAPK3 (human),76%
same,residual activity,NEK3 (human),111%
same,residual activity,NEK4 (human),96.1%
same,residual activity,NEK6 (human),96.3%
same,residual activity,NEK7 (human),83.6%
same,residual activity,NUAK1 (human),89.8%
same,residual activity,PDGFRA (human),44.1%
same,residual activity,PHKG2 (human),96.1%
same,residual activity,PLK1 (human),28.6%
same,residual activity,PRKCA (human),91.4%
same,residual activity,PRKCB1 (human),83.1%
same,residual activity,[1],83%
same,residual activity,PRKCZ (human),99.1%
same,residual activity,PRKG2 (human),140%
same,residual activity,PTK6 (human),111%
same,residual activity,SRMS (human),6.33%
same,residual activity,TBK1 (human),87%
same,residual activity,TGFBR1 (human),107%
same,residual activity,TTK (human),125%
same,residual activity,WNK3 (human),116%
